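Compound exposure: 48 hours, 5 concentrations, 96-well plates. Abbreviation: GI50, concentration required for 50% inhibition of growth. Definition used: TGI = concentration required for complete inhibition of growth.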
Tests used:
Experiment in all cases: DTP human tumour cell line panel, 48 h
[1] = system: HCT-15 colon
[2] = system: UACC-257 melanoma
[3] = system: CAKI-1 renal
[4] = system: SNB-19 CNS
[5] = system: RPMI-8226 leukemia
[6] = system: SNB-75 CNS
[7] = system: SN12C renal
[8] = system: SW-620 colon
[9] = system: U251 CNS
[10] = system: MDA-MB-435
[11] = system: BT-549 breast
[12] = system: NCI/ADR-RES ovarian
[13] = system: NCI-H522 lung
[14] = system: SF-268 CNS
[15] = system: OVCAR-5 ovarian
[16] = system: TK-10 renal
[17] = system: PC-3 prostate
[18] = system: LOX IMVI melanoma
[19] = system: CCRF-CEM leukemia
[20] = system: SR leukemia
[21] = system: DU-145 prostate
[22] = system: HOP-92 NSCLC
[23] = system: T-47D breast
[24] = system: HS 578T breast
[25] = system: OVCAR-4 ovarian
[26] = system: HOP-62 NSCLC
[27] = system: SF-539 CNS
[28] = system: HT29 colon
[29] = system: A498 renal
[30] = system: EKVX NSCLC
[31] = system: M14 melanoma
[32] = system: HL-60(TB) leukemia
[33] = system: RXF 393 renal
[34] = system: UACC-62 melanoma
[35] = system: MOLT-4 leukemia
[36] = system: UO-31 renal
[37] = system: A549 NSCLC
[38] = system: 786-0 renal
[39] = system: OVCAR-8 ovarian
[40] = system: COLO 205 colon
[41] = system: OVCAR-3 ovarian
[42] = system: MCF7 breast
[43] = system: NCI-H23 lung
[44] = system: KM12 colon
[45] = system: ACHN renal
[46] = system: SK-OV-3 ovarian
[47] = system: MALME-3M melanoma
[48] = system: MDA-MB-468 breast
[49] = system: SK-MEL-28 melanoma
[50] = system: HCT-116 colon
[51] = system: HCC-2998 colon
[52] = system: K-562 leukemia
[53] = system: SK-MEL-5 melanoma
[54] = system: SK-MEL-2 melanoma
[55] = system: MDA-MB-231 breast
[56] = system: NCI-H460 lung
[57] = system: SF-295 CNS

## Cc1nc(Nc2ncc(C(=O)Nc3c(C)cccc3Cl)s2)cc(N2CCN(CCCNC(=O)COc3ccc(C4CCC(=O)NC4=O)cc3)CC2)n1 (stereo not drawn)
[1]
  GI50: 9.01 µM
  TGI: > 100 µM
[2]
  GI50: > 100 µM
  TGI: > 100 µM
[3]
  GI50: 0.206 µM
  TGI: 1.83 µM
[4]
  GI50: > 100 µM
  TGI: > 100 µM
[5]
  GI50: > 100 µM
  TGI: > 100 µM
[6]
  GI50: < 0.01 µM
[7]
  GI50: 0.0309 µM
  TGI: > 100 µM
[8]
  GI50: > 100 µM
  TGI: > 100 µM
[9]
  GI50: > 100 µM
  TGI: > 100 µM
[10]
  GI50: > 100 µM
  TGI: > 100 µM
[11]
  GI50: > 100 µM
  TGI: > 100 µM
[12]
  GI50: > 100 µM
  TGI: > 100 µM
[13]
  GI50: 1.3 µM
  TGI: > 100 µM
[14]
  GI50: 0.11 µM
  TGI: > 100 µM
[15]
  GI50: 0.191 µM
  TGI: > 100 µM
[16]
  GI50: 0.517 µM
  TGI: 4.12 µM
[17]
  GI50: 2.43 µM
  TGI: > 100 µM
[18]
  GI50: 0.0182 µM
  TGI: 0.218 µM
[19]
  GI50: 34 µM
  TGI: > 100 µM
[20]
  GI50: 2.8 µM
  TGI: > 100 µM
[21]
  GI50: 2.3 µM
  TGI: > 100 µM
[22]
  GI50: < 0.01 µM
  TGI: 0.0498 µM
[23]
  GI50: 0.454 µM
  TGI: > 100 µM
[24]
  GI50: 0.0167 µM
  TGI: 0.13 µM
[25]
  GI50: > 100 µM
  TGI: > 100 µM
[26]
  GI50: 0.336 µM
  TGI: > 100 µM
[27]
  GI50: 0.0507 µM
  TGI: 4.7 µM
[28]
  GI50: 0.181 µM
  TGI: 2.54 µM
[29]
  GI50: 2.93 µM
  TGI: > 100 µM
[30]
  GI50: 1.85 µM
  TGI: > 100 µM
[31]
  GI50: > 59.2 µM
  TGI: > 100 µM
[32]
  GI50: > 79.5 µM
  TGI: > 100 µM
[33]
  GI50: 0.0147 µM
  TGI: 0.081 µM
[34]
  GI50: > 100 µM
  TGI: > 100 µM
[35]
  GI50: 7.64 µM
  TGI: > 100 µM
[36]
  GI50: 1.47 µM
  TGI: > 100 µM
[37]
  GI50: 2.23 µM
  TGI: > 48.1 µM
[38]
  GI50: 0.445 µM
  TGI: > 100 µM
[39]
  GI50: 0.934 µM
  TGI: > 52.2 µM
[40]
  GI50: 0.0695 µM
  TGI: > 100 µM
[41]
  GI50: 0.275 µM
  TGI: > 100 µM
[42]
  GI50: > 100 µM
  TGI: > 100 µM
[43]
  GI50: 16.9 µM
  TGI: > 100 µM
[44]
  GI50: > 91.9 µM
  TGI: > 100 µM
[45]
  GI50: 0.757 µM
  TGI: > 100 µM
[46]
  GI50: 0.505 µM
  TGI: 6.95 µM
[47]
  GI50: > 100 µM
  TGI: > 100 µM
[48]
  GI50: 0.172 µM
  TGI: 5.16 µM
[49]
  GI50: > 100 µM
  TGI: > 100 µM
[50]
  GI50: 2.5 µM
  TGI: > 92.5 µM
[51]
  GI50: > 100 µM
  TGI: > 100 µM
[52]
  GI50: < 0.01 µM
  TGI: > 100 µM
[53]
  GI50: 66.7 µM
  TGI: > 100 µM
[54]
  GI50: > 100 µM
  TGI: > 100 µM
[55]
  GI50: 0.0256 µM
  TGI: 10.6 µM
[56]
  GI50: > 100 µM
  TGI: > 100 µM
[57]
  GI50: 6.78 µM
  TGI: > 100 µM

Source: PubChem BioAssay (NCI)
